Experimental data taken from article PMC11304990, “Identification of mitochondrial ATP synthase as the cellular target of Ru-polypyridyl-β-carboline complexes by affinity-based protein profiling” (National Science Review, 2024).

Assays:
[1] = test system: cervical carcinoma (HeLa); assay: MTT antiproliferative assay, HeLa; assay type: cell-based, human; settings: 72 h
Excerpt: (§1) Ru3–Ru9 also show a certain selectivity for cancer cells over normal cells, and Ru2, Ru3, Ru5 and Ru9 show higher selectivity index (SI) values than the other complexes.
(§2) PA-BPP was then used to confirm the molecular targets of Ru5 by modifying it with a ‘minimalist’ biorthogonal handle-containing photo-cross-linker. Through our structure–activity relationship analysis and comparison with other ruthenium complexes utilizing phen as the auxiliary ligands with similar coordination structures (using cisplatin as a control), we propose that the β-carboline ligands play an important role in antiproliferative activity. To maintain the binding characteristics of the β-carboline moiety with the targeted biomolecules, we linked the photo-cross-linker to one of the auxiliary ligands of Ru5.

[2] = test system: lung adenocarcinoma (A549); assay: MTT antiproliferative assay, A549; assay type: cell-based, human; settings: for IC50: 72 h; for SI (selectivity index): SI = (IC50 for HLF)/(IC50 for A549)
Excerpt: as §1, §2

[3] = test system: cisplatin-resistant A549R; assay: MTT antiproliferative assay, A549R; assay type: cell-based, human; settings: 72 h
Excerpt: as §1, §2

prostate cancer (PC3) = assay: MTT antiproliferative assay, PC3; assay type: cell-based, human; settings: 72 h
Excerpt: as §1, §2

[4] = test system: triple negative breast cancer (MDA-MB-231); assay: MTT antiproliferative assay, MDA-MB-231; assay type: cell-based, human; settings: 72 h
Excerpt: as §1, §2

malignant glioma (U87) = assay: MTT antiproliferative assay, U87; assay type: cell-based, human; settings: 72 h
Excerpt: as §1, §2

[5] = test system: human lung fibroblast-like (HLF) cells; assay: MTT antiproliferative assay, HLF; assay type: cell-based; settings: 72 h
Excerpt: as §1, §2

A549 xenograft = A549 xenograft nude mice model; assay type: in vivo; settings: 5 mg kg−1, intratumoral injection every 7 days, 14 days, compared with the control groups
Protocol: Lastly, the in vivo anticancer activity of Ru5 was assessed via a A549 xenograft nude mice model (Fig. 5A). Mice were treated with PBS, cisplatin (5 mg kg^−1) or Ru5 (5 mg kg^−1) for 14 days, during which body weights and tumor volumes were monitored.
Figure 5. […] (A) Schematic illustration of in vivo therapeutic protocol. (B) Graphs of tumor volumes of nude mice after treatment with Ru5 (5 mg kg^−1), cisplatin (5 mg kg^−1) and PBS. The intratumoral injections were performed every 7 days. Data are presented as means ± SD, n = 5. (C) Immunohistochemical analysis of hematoxylin-eosin (H&E) staining in tumor sections from mice with different treatments. Scale bar: 50 μm. (D) Tumors separated from nude mice. (E) The average body weight of the mice in each group during the treatment process. Data are presented as means ± SD, n = 5. (F) H&E staining of the main organs from mice with different treatments. Scale bar: 100 μm.

[6] = Aqueous solubility by concentration-absorbance linearity; assay type: physicochemical; settings: PBS with 1% DMSO
Excerpt: Subsequently, the lipophilicity and aqueous solubility of Ru1–Ru9 were investigated.

[7] = target: ATPase (mitochondrial ATP synthase); assay: Inhibition of the enzymatic activity of ATPase in vitro; assay type: biochemical; settings: read-out: Inhibition constant (Ki)
Protocol: (§3) Figure 1. Validation of ATP5F1 as the molecular target of Ru5. (A) Proteins pulled down by streptavidin from A549 cells treated with Ru5a followed by PAL. The cells were treated with Ru5a (50 μM) for 12 h and irradiated with UV light for 20 min. (B) The top five peptides enriched by Ru5a-mediated PAL were identified with the assistance of SILAC-based chemoproteomic studies. H1F0: H1 histone family member 0; HIST4H4: histone cluster 4 H4; HIST3H2BB: histone cluster 3 H2B family member b; ATP5F1E: ATP synthase F1 subunit epsilon; HIST1H2AJ: histone cluster 1 H2A family member J. (C) Pull-down western blotting analysis of ATPase in A549 cells treated with Ru5a. (D) Cellular Ru content in cells treated with Ru5/Ru5a (20 μM, 12 h) measured by ICP-MS. (E) Impact of Ru5/Ru5a (10 μM) on the thermal stability of ATP5F1 measured by CETSA. (F) Impact on the anticancer activities of Ru5/Ru5a against wild type and ATPase knocking down (by siRNA) A549 cells. The relative cellular viability was calculated using the cells without drug treatment in each group as the control group. (G) Inhibition of Ru5/Ru5a on the enzymatic activity of ATPase. (-)-blebbistatin was used as the positive control. (H) Molecular docking of Ru5 with ATPase (PDB: 3ZIA). The red dashes indicate the hydrogen bonds formed between Ru5 and the amino acid residues (SER38 and GLN39). The yellow dashes indicate the hydrophobic interaction between Ru5 and the amino acid residues (ASN15 and GLN19). Data are presented as means ± SD from three independent experiments. TEXT PRINTED IN THE PICTURE: (B) Ru5a: Log2 (fold change) (Ru5a/DMSO): 1.43 (Protein name: H1F0); Log2 (fold change) (Ru5a/DMSO): 1.23 (Protein name: HIST4H4); Log2 (fold change) (Ru5a/DMSO): 1.22 (Protein name: HIST3H2BB); Log2 (fold change) (Ru5a/DMSO): 1.21 (Protein name: ATP5F1E); Log2 (fold change) (Ru5a/DMSO): 1.12 (Protein name: HIST1H2AJ) DOUBTS OF THE COPYIST ABOUT THIS PICTURE: Panel B: the table rows are proteins enriched by Ru5a, not separate substances. […]

ATP5F1 = assay: Cellular thermal shift assay (CETSA); assay type: cell-based; settings: 10 μM
Protocol: as §3, with “GLN39).” for “GLN39). The yellow dashes indicate the hydrophobic interaction between Ru5 and the amino acid residues (ASN15 and GLN19). Data are presented as means ± SD from three independent experiments. TEXT PRINTED IN THE PICTURE: (B) Ru5a: Log2 (fold change) (Ru5a/DMSO): 1.43 (Protein name: H1F0); Log2 (fold change) (Ru5a/DMSO): 1.23 (Protein name: HIST4H4); Log2 (fold change) (Ru5a/DMSO): 1.22 (Protein name: HIST3H2BB); Log2 (fold change) (Ru5a/DMSO): 1.21 (Protein name: ATP5F1E); Log2 (fold change) (Ru5a/DMSO): 1.12 (Protein name: HIST1H2AJ) DOUBTS OF THE COPYIST ABOUT THIS PICTURE: Panel B: the table rows are proteins enriched by Ru5a, not separate substances.”

mitochondria = assay: Subcellular Ru content by ICP-MS; assay type: cell-based; settings: 20 μM, 12 h
Protocol: as §3, with “GLN39).” for “GLN39). The yellow dashes indicate the hydrophobic interaction between Ru5 and the amino acid residues (ASN15 and GLN19). Data are presented as means ± SD from three independent experiments. TEXT PRINTED IN THE PICTURE: (B) Ru5a: Log2 (fold change) (Ru5a/DMSO): 1.43 (Protein name: H1F0); Log2 (fold change) (Ru5a/DMSO): 1.23 (Protein name: HIST4H4); Log2 (fold change) (Ru5a/DMSO): 1.22 (Protein name: HIST3H2BB); Log2 (fold change) (Ru5a/DMSO): 1.21 (Protein name: ATP5F1E); Log2 (fold change) (Ru5a/DMSO): 1.12 (Protein name: HIST1H2AJ) DOUBTS OF THE COPYIST ABOUT THIS PICTURE: Panel B: the table rows are proteins enriched by Ru5a, not separate substances.”

A549 cells = assay: Anticancer activity in wild type vs ATPase siRNA knockdown cells; assay type: cell-based, human; settings: compared to wild-type cells
Protocol: as §3, with “GLN39).” for “GLN39). The yellow dashes indicate the hydrophobic interaction between Ru5 and the amino acid residues (ASN15 and GLN19). Data are presented as means ± SD from three independent experiments. TEXT PRINTED IN THE PICTURE: (B) Ru5a: Log2 (fold change) (Ru5a/DMSO): 1.43 (Protein name: H1F0); Log2 (fold change) (Ru5a/DMSO): 1.23 (Protein name: HIST4H4); Log2 (fold change) (Ru5a/DMSO): 1.22 (Protein name: HIST3H2BB); Log2 (fold change) (Ru5a/DMSO): 1.21 (Protein name: ATP5F1E); Log2 (fold change) (Ru5a/DMSO): 1.12 (Protein name: HIST1H2AJ) DOUBTS OF THE COPYIST ABOUT THIS PICTURE: Panel B: the table rows are proteins enriched by Ru5a, not separate substances.”

With `N.N.[Cl][Pt][Cl]` [Cisplatin, reference compound] the IC50 [1] was 10.3 ± 1.3 µM, the IC50 [2] was 5.9 ± 1 µM and the “SI (selectivity index)” value [2] was 2.6. It also gave an IC50 [3] of 28.1 ± 4.2 µM, an IC50 (prostate cancer (PC3)) of 13.1 ± 2.7 µM and an IC50 [4] of 9 ± 0.2 µM. The IC50 (malignant glioma (U87)) was 14.8 ± 1.2 µM, the IC50 [5] was 15.4 ± 1.1 µM and the “Tumor growth inhibitory rate” value (A549 xenograft) was ~74.4%.
With `F[P-](F)(F)(F)(F)F.F[P-](F)(F)(F)(F)F.[Ru+2].c1ccc(-c2ccnc3c2ccc2c(-c4ccccc4)ccnc23)cc1.c1ccc(-c2ccnc3c2ccc2c(-c4ccccc4)ccnc23)cc1.c1ccc2[nH]c(-c3nccc4c3[nH]c3ccccc34)nc2c1` [Ru9] the “SI (selectivity index)” value [2] was “higher” and the Highest solubility [6] was “lower than 40 μM”.
In the case of `Cc1ccc2c(c1)C(=O)C1(O)CCN(c3ccccc3)C1=N2` (single isomer, unassigned; (-)) [(-)-blebbistatin, reference compound], the Ki [7] is reported as 3.3 ± 0.5 µM.
In the case of `F[P-](F)(F)(F)(F)F.F[P-](F)(F)(F)(F)F.[Ru+2].c1ccc(-c2ccnc3c2ccc2c(-c4ccccc4)ccnc23)cc1.c1ccc(-c2ccnc3c2ccc2c(-c4ccccc4)ccnc23)cc1.c1ccc2nc(-c3nccc4c3[nH]c3ccccc34)ccc2c1` [Ru3], the “SI (selectivity index)” value [2] is reported as “higher” and the Highest solubility [6] is reported as “lower than 40 μM”.
With `C#CCCC1(CCNC(=O)c2cc3cccnc3c3ncccc23)N=N1.F[P-](F)(F)(F)(F)F.F[P-](F)(F)(F)(F)F.[Ru+2].c1ccc2c(c1)[nH]c1c(-c3ncc[nH]3)nccc12.c1cnc2c(c1)ccc1cccnc12` [Ru5a] the IC50 [1] was 3.8 ± 0.1 µM, the IC50 [2] was 2.5 ± 0.4 µM and the “SI (selectivity index)” value [2] was 9.3. The IC50 [3] was 4.2 ± 0.6 µM, the IC50 (prostate cancer (PC3)) was 3.4 ± 0.6 µM and the IC50 [4] was 8.4 ± 0.6 µM. For the same compound, the IC50 (malignant glioma (U87)) was 13.4 ± 0.4 µM, the IC50 [5] was 23.2 ± 0.3 µM and the Ki [7] was 8.1 ± 1.5 µM. The “Thermal stability of ATP5F1” value (ATP5F1) was “increased”, the “Subcellular location (cellular Ru content)” value (mitochondria) was “mainly located in mitochondria” and the “Effect of siRNA-mediated knockdown of ATPase on anticancer effects” value (A549 cells) was “alleviates”.
For `F[P-](F)(F)(F)(F)F.F[P-](F)(F)(F)(F)F.[Ru+2].c1ccc2nc(-c3nccc4c3[nH]c3ccccc34)ccc2c1.c1cnc2c(c1)ccc1cccnc12.c1cnc2c(c1)ccc1cccnc12` [Ru2], the “SI (selectivity index)” value [2] was “higher” and the “Linear relationship between absorbance and concentration up to” value [6] was “at least 100 μM”.
For `F[P-](F)(F)(F)(F)F.F[P-](F)(F)(F)(F)F.[Ru+2].c1ccc2[nH]c(-c3nccc4c3[nH]c3ccccc34)nc2c1.c1cnc2c(c1)ccc1cccnc12.c1cnc2c(c1)ccc1cccnc12` [Ru8], the “Linear relationship between absorbance and concentration up to” value [6] was “at least 100 μM”.
With `F[P-](F)(F)(F)(F)F.F[P-](F)(F)(F)(F)F.[Ru+2].c1ccc(-c2ccnc3c2ccc2c(-c4ccccc4)ccnc23)cc1.c1ccc(-c2ccnc3c2ccc2c(-c4ccccc4)ccnc23)cc1.c1ccc2c(c1)[nH]c1c(-c3ncc[nH]3)nccc12` [Ru6] the Highest solubility [6] was “lower than 40 μM”.
